Results taken from US7312322B1, “Genetic sequences encoding steroid and juvenile hormone receptor polypeptides and insecticidal modalities therefor” (priority 1998, dated 2007).

How the values were obtained:
[1] = biological target: T1, EcR polypeptide of the L. cuprina ecdysone receptor (Lucilia cuprina, UniProt O18531); experiment: CHO cell co-transfection CAT reporter assay, pSGLcEcR; type: cell-based; conditions: CHO cells, 48 h after transfection, average of three experiments (FIG. 1)
T1 construct: Plasmid pF3 thus contains the complete open reading frame of the cDNA encoding the EcR polypeptide of the L. cuprina ecdysone receptor; expressed in transfected cells; host or cells: CHO cells
T1 sequence (O18531 1-757): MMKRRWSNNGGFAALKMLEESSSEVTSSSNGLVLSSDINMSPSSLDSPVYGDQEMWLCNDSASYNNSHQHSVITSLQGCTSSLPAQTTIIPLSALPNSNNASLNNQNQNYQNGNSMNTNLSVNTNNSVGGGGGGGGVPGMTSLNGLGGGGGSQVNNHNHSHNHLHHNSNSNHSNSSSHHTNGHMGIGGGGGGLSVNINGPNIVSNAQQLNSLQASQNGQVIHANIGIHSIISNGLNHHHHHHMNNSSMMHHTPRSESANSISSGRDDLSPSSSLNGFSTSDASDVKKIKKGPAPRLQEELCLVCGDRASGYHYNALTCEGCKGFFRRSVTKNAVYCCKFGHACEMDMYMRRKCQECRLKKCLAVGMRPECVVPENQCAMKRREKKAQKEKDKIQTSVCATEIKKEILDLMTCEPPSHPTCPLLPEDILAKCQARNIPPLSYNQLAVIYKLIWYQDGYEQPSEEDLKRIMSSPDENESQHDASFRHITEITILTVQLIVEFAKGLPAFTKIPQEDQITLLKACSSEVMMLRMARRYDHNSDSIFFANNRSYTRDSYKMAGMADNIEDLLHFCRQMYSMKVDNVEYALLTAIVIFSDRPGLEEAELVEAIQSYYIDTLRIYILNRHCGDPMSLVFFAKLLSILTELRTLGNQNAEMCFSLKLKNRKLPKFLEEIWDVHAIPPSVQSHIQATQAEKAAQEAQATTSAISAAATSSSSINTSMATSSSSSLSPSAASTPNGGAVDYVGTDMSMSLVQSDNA
Description: CHO cells were co-transfected with a mixture comprising the following DNAs, lysed and assayed for CAT and β-galactosidase enzyme activity, as described in the preceding Examples: • (1) one of the expression plasmids designated pSGDmEcR, or pSGLcEcR, or the parental expression plasmid pSG5 as a negative control, at a concentration of 1 μg/ml; and • (2) the CAT reporter plasmid p(EcRE)5CAT at a concentration of 1 μg/ml; and • (3) an independent LacZ reporter plasmid, pPGKLacZ, at a concentration of 1 μg/ml, included as a control to monitor transfection efficiency.
CAT reporter gene expression was induced with 10 μM or 50 μM Muristerone A. In control samples, cells received only the carrier ethanol in place of Muristerone A.
ELISA was used to quantify the synthesis of CAT and β-galactosidase enzymes, in extracts of cells forty eight hours after transfection. Account was taken of the variation between experiments, by normalizing the level of CAT enzyme to the level of β-galactosidase enzyme present in the same extract. Fold induction represents the normalized values for CAT gene expression in cells transfected with pSGDmEcR, pSGLcEcR or pSG5 in the presence of hormone divided by the normalized values for CAT gene expression in cells transfected with the same plasmid but in the absence of hormone. […]

[2] = biological target: T2, chimeric EcR polypeptide encoded by plasmid pSGLD (UniProt O18531+P34021, A395P/D402E/DEL360-378/E403D/F552Y/I397C/I665A/INS379CATEI/K578E/L663I/M356I/Q393S/Q448S/Q580E/R443K/S415P/S515N/S605P/T357Q/T417S/T456H/V458A/Y611F); experiment: CHO cell co-transfection CAT reporter assay, chimeric EcR plasmid pSGLD; type: cell-based, D. melanogaster / L. cuprina; conditions: 10 μM and 50 μM Muristerone A, comparable to D. melanogaster base EcR polypeptide (FIG. 2)
T2 construct: expressed in transfected cells
Description: (§1) FIG. 2 is a copy of a graphical representation showing the activity of plasmid pSGLD and pSGDL, containing chimeric EcR polypeptide subunits of insect ecdysone receptors, produced as described in the Examples. Cotransfection assays were performed as described in the Examples using plasmids pSGLD and pSGDL and the CAT reporter plasmid p(EcRE)7-CAT (1 ug/ml) and an independent reporter, pPGKLacZ at 1 μg/ml each. CAT/b-Gal (%) refers to CAT reporter activity expressed as a percentage relative to β-galactosidase activity produced by the internal control reporter, pPGKLacZ.
(§2) In one exemplification of this embodiment, plasmids pSGLD and pSGDL are produced comprising coding regions derived from the EcR polypeptides of the D. melanogaster and L. cuprina ecdysone receptors. In plasmid pSGLD, the 5′-end of the open reading frame of the D. melanogaster sequence, encoding the N-terminal portion of the EcR polypeptide of the D. melanogaster ecdysone receptor to the end of the DNA-binding domain of said polypeptide, is fused to the 3′-end of the open reading frame of the L. cuprina sequence, encoding the C-terminal portion of the EcR polypeptide of the L. cuprina ecdysone receptor, from the D domain and hormone-binding domain to the carboxyl terminus. […]

[3] = biological target: T3, chimeric EcR polypeptide encoded by plasmid pSGDL (Drosophila melanogaster, UniProt P34021, A242T/A248V/C246S/D219E/E244D/N243S/R304H/S245A/S251I/S295N/V221A/V259L/Y240F); experiment: CHO cell co-transfection CAT reporter assay, chimeric EcR plasmid pSGDL; type: cell-based, L. cuprina / D. melanogaster; conditions: 10 μM and 50 μM Muristerone A, comparable to D. melanogaster base EcR polypeptide (FIG. 2)
T3 construct: expressed in transfected cells
Description: as §1, §2

[4] = biological target: T4, linker and ligand-binding regions of the D. melanogaster EcR polypeptide and partner protein (USP polypeptide) (Drosophila melanogaster, UniProt P34021); experiment: [3H]ponasterone A binding assay in cells infected by recombinant baculovirus (modified method of Yund et al); conditions: compared to the naturally-occurring ecdysone holoreceptor in L. cuprina embryos; no specific binding with control virus
T4 construct: made in house; host or cells: recombinant baculovirus in insect Sf21 and Sf9 cells
T4 sequence (P34021 419-654 limits assumed): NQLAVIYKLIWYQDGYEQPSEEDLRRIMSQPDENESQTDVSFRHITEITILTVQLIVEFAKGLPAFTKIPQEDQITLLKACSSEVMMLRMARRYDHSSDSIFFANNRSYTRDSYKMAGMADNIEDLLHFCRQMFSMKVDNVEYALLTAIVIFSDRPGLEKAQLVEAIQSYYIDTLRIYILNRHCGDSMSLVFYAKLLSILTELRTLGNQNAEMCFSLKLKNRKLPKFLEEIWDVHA
T4 sequence (P20153 239-498 partner limits assumed): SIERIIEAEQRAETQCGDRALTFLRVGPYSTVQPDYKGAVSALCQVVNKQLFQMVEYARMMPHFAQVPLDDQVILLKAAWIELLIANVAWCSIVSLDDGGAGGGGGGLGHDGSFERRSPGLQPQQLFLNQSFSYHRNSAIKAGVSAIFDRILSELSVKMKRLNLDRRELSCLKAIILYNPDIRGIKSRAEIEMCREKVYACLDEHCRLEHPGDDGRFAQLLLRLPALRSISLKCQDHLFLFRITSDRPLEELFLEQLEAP
Excerpt: The segment of pDmEcR.USP.DUAL which encodes the tagged linker and ligand-binding regions of the EcR polypeptide and partner protein (USP polypeptide) sequences, placed operably under the control of polyhedrin and p10 promoters, respectively, was recombined into a baculovirus genome, by employing the Tn7 transposition system (Luckow et al, (1993). The polypeptide products were then co-expressed in insect Sf21 and Sf9 cells, where they associated into a functional complex.
The correctly-folded and associated complex formed by the truncated Ecr polypeptide and truncated EcR partner protein (USP polypeptide), is used for X-ray and NMR structural analysis and for high-throughput screens.

T3 sequence (P34021 other isoform, or with tags, fused parts or gaps with the stated changes): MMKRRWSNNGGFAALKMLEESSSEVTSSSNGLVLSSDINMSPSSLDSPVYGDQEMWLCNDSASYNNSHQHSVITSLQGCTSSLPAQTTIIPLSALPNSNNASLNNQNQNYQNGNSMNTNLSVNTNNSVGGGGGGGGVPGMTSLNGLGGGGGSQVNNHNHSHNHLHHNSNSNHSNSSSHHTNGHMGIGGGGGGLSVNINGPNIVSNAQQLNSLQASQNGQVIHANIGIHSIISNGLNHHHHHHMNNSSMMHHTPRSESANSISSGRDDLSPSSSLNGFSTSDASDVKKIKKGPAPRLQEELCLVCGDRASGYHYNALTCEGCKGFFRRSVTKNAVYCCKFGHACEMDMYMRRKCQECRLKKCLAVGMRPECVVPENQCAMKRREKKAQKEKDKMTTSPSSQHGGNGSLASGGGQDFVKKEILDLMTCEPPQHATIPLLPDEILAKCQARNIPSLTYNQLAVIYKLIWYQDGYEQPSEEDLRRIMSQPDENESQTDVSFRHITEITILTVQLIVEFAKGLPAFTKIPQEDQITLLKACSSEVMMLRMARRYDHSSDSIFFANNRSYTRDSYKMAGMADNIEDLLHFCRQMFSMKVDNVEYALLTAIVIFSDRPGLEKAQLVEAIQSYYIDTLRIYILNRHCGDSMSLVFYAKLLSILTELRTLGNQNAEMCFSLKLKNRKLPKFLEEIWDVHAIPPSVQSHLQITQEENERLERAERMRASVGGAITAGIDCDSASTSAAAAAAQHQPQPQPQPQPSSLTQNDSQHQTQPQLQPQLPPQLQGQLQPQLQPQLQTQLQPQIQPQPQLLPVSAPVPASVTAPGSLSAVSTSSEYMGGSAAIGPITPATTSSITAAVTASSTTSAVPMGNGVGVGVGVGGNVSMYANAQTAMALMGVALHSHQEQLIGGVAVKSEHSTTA
T2 sequence (P34021+O18531 fused with the stated changes): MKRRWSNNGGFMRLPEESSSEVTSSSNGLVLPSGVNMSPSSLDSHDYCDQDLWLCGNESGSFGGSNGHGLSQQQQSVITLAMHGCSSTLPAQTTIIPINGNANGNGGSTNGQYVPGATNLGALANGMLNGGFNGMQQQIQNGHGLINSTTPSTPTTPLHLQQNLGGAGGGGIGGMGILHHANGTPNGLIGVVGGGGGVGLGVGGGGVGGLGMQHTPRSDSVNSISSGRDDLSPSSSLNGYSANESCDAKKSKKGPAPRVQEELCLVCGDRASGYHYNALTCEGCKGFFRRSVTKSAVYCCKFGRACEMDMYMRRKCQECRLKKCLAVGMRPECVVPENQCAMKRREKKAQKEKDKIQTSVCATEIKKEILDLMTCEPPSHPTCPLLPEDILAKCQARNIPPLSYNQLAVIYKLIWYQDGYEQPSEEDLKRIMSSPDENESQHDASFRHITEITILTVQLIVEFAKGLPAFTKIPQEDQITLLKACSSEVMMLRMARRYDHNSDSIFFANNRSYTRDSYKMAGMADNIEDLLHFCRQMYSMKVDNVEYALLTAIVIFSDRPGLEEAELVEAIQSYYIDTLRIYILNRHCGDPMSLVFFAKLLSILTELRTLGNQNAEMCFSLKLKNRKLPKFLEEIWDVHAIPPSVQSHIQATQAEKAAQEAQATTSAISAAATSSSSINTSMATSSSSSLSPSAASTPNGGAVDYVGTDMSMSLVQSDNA

Row | Compound | CAT induction (fold induction) ([1]; 50 μM steroid) | CAT induction (fold induction) ([1]; 10 μm steroid) [fold] | bioactivity in the CAT assay [2] | bioactivity in the CAT assay [3] | binding of labelled ligand in cells infected by the recombinant baculovirus [4]
1 | CC(C)CC[C@@H](O)[C@](C)(O)[C@H]1CC[C@@]2(O)C3=CC(=O)[C@]4(O)C[C@@H](O)[C@@H](O)C[C@]4(C)[C@H]3[C@H](O)C[C@]12C [Muristerone A] | about 30 fold | ~15 | Significant bioactivity | Significant bioactivity | 
2 | [^3H]ponasterone A |  |  |  |  | highly-significant increase in the binding
